Our source for the koff values is BindingDB's records for doi:10.1016/j.bmc.2021.116291 (Fudan University School of Pharmacy, 2021).

What is called koff is the rate constant with which the complex falls apart.

The target of this assay is Glucagon-like peptide 1 receptor (Homo sapiens, UniProt P43220). The assay can be described thus: Binding affinity to GLP1R (unknown origin) assessed as dissociation rate constant by surface plasmon resonance analysis.
Glucagon-like peptide 1 receptor, sequence (P43220 whole entry): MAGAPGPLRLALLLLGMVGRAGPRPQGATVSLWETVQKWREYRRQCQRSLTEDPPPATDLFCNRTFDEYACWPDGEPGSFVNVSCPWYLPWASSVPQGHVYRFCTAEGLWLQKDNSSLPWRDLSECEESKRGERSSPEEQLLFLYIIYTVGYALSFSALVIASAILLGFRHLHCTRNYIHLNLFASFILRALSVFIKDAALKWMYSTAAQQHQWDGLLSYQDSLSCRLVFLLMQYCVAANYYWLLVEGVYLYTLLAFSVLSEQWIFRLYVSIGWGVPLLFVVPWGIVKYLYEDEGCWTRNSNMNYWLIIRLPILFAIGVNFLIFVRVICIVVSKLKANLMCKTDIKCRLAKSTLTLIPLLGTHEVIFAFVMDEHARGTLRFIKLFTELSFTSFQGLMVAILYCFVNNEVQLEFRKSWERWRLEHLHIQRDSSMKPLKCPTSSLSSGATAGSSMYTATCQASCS
For the compound `CCCCCCCCCCCC(=O)N[C@@H](CCC(=O)NCCCC[C@H](NC(=O)CC[C@H](NC(=O)CCCCCCCCCCC)C(=O)O)C(=O)NCCOCCOCC(=O)O)C(=O)O`, the koff was found to be 0.0065 s⁻¹.
With `CCCCCCCCCCCC(=O)N[C@@H](CCC(=O)NCCCC[C@H](NC(=O)CC[C@H](NC(=O)CCCCCCCCCCC)C(=O)O)C(=O)NCCOCCOCC(=O)NCCOCCOCC(=O)O)C(=O)O` the figure was 0.00857 s⁻¹.
To `CCCCCCCCCCCC(=O)N[C@@H](CCC(=O)NCCCC[C@H](NC(=O)CC[C@H](NC(=O)CCCCCCCCCCC)C(=O)O)C(=O)NCCOCCOCC(=O)NCCOCCOCC(=O)NCCOCCOCC(=O)O)C(=O)O` belongs 0.0237 s⁻¹.
